This is an account of results in BindingDB's records for doi:10.1016/j.ejmech.2018.10.048 (Touro University-California, 2019).

This assay in a line: Inhibition of HIV1 gp41-induced cell-cell fusion between viral protein expressing human HL2/3 cells and TZM-bl target cells preincubated overnight with TZM-bl cells followed by co-incubation with HL2/3 cells for 6 hrs by luciferase reporter gene assay.
Regarding `COc1cccc(CN2CCc3ccc(-c4ccc5ccn(Cc6cccc(C(=O)O)c6)c5c4)cc32)c1`, the IC50 (as a rule, the concentration needed to halve the response being measured) was 1 µM.

Take `COC(=O)c1cccc(Cn2ccc3ccc(-c4ccc5cnn(Cc6cccc(C(=O)O)c6)c5c4)cc32)c1`: the half-inhibitory concentration (IC50) worked out at 2.8 µM. The figure for `COC(=O)c1cc(Cn2ccc3ccc(-c4ccc5ccn(Cc6cccc(C(=O)O)c6)c5c4)cc32)cc(C(=O)OC)c1` is 0.2 µM.

Consider `CC(C)(C)OC(=O)Nc1cccc(Cn2ccc3ccc(-c4ccc5ccn(Cc6cccc(C(=O)O)c6)c5c4)cc32)c1`, for which the IC50 came out at 2 µM. The figure for `Cn1ncc2ccc(-c3ccc4ccn(Cc5cc(F)cc(C(=O)O)c5)c4c3)cc21` is 7 µM; for `Cn1ccc2cc(F)c(-c3ccc4ccn(Cc5cc(F)cc(C(=O)O)c5)c4c3)cc21` it is 2 µM.

For `COC(=O)c1cc(F)cc(Cn2ccc3ccc(-c4ccc5ccn(Cc6cccc(C(=O)O)c6)c5c4)cc32)c1`, the 50% inhibitory concentration (IC50) turned out to be 0.8 µM.

Take `COc1cccc(Cn2ccc3cc(F)c(-c4ccc5ccn(Cc6cccc(C(=O)O)c6)c5c4)cc32)c1`: the IC50 was determined as 3.5 µM. For `COc1cc(Cn2ccc3ccc(-c4ccc5ccn(Cc6cccc(C(=O)O)c6)c5c4)cc32)cc(C(=O)O)c1`, the IC50 is 8 µM. The figure for `CC(=O)Nc1cccc(Cn2ccc3ccc(-c4ccc5ccn(Cc6cccc(C(=O)O)c6)c5c4)cc32)c1` is 1 µM; for `CC(C)(C)OC(=O)N1CCC(Cn2ccc3ccc(-c4ccc5ccn(Cc6cccc(C(=O)O)c6)c5c4)cc32)CC1` it is 1.2 µM; for `Cc1ccc(S(=O)(=O)n2ccc3ccc(-c4ccc5ccn(Cc6cccc(C(=O)O)c6)c5c4)cc32)cc1` it is 1.3 µM. On to `Cn1cc2ccc(-c3ccc4ccn(Cc5cc(F)cc(C(=O)O)c5)c4c3)cc2n1`, for which the IC50 was found to be 28 µM. Under `Cn1ccc2ccc(-c3ccc4c(c3)N(Cc3cccc(C(=O)O)c3)CC4)cc21` stands > 10 µM; under `COc1cccc(CNc2cccc(-c3ccc4ccn(Cc5cccc(C(=O)O)c5)c4c3)c2)c1`, > 10 µM. Under `COC(=O)c1cccc(Cn2ncc3ccc(-c4ccc5ccn(Cc6cccc(C(=O)O)c6)c5c4)cc32)c1` stands 0.3 µM; under `Cn1ccc2ccc(-c3ccc4ccn(Cc5cc(F)cc(C(=O)O)c5)c4c3)cc21`, 3.6 µM; under `O=C(O)c1cccc(Cn2ccc3ccc(-c4ccc5ccn(Cc6cccc([N+](=O)[O-])c6)c5c4)cc32)c1`, 2 µM. The figure for `Nc1ccc(Cn2ccc3ccc(-c4ccc5ccn(Cc6cccc(C(=O)O)c6)c5c4)cc32)cc1` is 3 µM. Turning to `Cn1ncc2ccc(-c3ccc4cnn(Cc5ccc(F)c(C(=O)O)c5)c4c3)cc21`, the IC50 is > 25 µM. The figure for `CC(C)(C)OC(=O)n1ccc2ccc(-c3ccc4ccn(Cc5cccc(C(=O)O)c5)c4c3)cc21` is 0.8 µM; for `CN(C(=O)OC(C)(C)C)c1cccc(-c2ccc3ccn(Cc4cccc(C(=O)O)c4)c3c2)c1` it is 5.9 µM. Under `Cn1ccc2ccc(-c3ccc4cnn(Cc5cc(F)cc(C(=O)O)c5)c4c3)cc21` stands 4.6 µM. Under `COc1cccc(Cn2ccc3ccc(-c4ccc5c(C)cn(Cc6cccc(C(=O)O)c6)c5c4)cc32)c1` stands 4 µM; under `Cc1cn(C(=O)OC(C)(C)C)c2cc(-c3ccc4ccn(Cc5cccc(C(=O)O)c5)c4c3)ccc12`, 2.6 µM; under `COC(=O)c1ccc(Cn2ccc3ccc(-c4ccc5ccn(Cc6cccc(C(=O)O)c6)c5c4)cc32)c(OC)c1`, 2 µM.
